# Read-outs that look alike come from different tables or passages of the source.
# Assays:
# [1] = system: Arachidonic acid-induced inflammation (mouse ear); assay: Topical anti-inflammatory test against arachidonic acid-induced inflammation (mouse ear swelling); assay type: in vivo, mouse (ICR, male); conditions: for % Inhibition of swelling: 1 hr A.A.; for % Inhibition of swelling / Ear Thickness Measurement, Left Ear (No A.A.) / Ear Thickness Measurement, Right Ear (1 hr. A.A.) / Swelling (R - L): n = 5/group; for Ear Thickness Measurement, Left Ear (No A.A.) / Ear Thickness Measurement, Right Ear (1 hr. A.A.) / Swelling (R - L): mean ± SEM
# Protocol: The anti-inflammatory studies were carried out utilizing a topical model with arachidonic acid as the inflammation-inducing compound. 15-LO initiates the metabolic pathway leading to the formation of the lipoxins by converting arachidonic acid to […] (15-HPETE). Lipoxins may share some of the bioactivity associated with leukotrienes, the end-product associated with the 5-LO arachidonic acid metabolic pathway. A solution of arachidonic acid was applied to the surface of a mouse ear with the test substance (THBH) […]. Ear swelling was measured after an additional 60 minutes as an index of inflammation. For all test procedures, % inhibition was calculated according to the formula
# where Ic is the increase in ear thickness (mm) in control mice and It is the increase in ear thickness in treated mice (see Example 5).
# Arachidonic acid (2 mg in 20 μl acetone:pyridine:water) in a ratio of 7:2:1) was applied topically to the anterior and posterior surfaces of the right ear of mice 30 min following similar application of hopanoid or control (20 μl). Swelling of the ear was then measured by a Dyer model micrometer gauge after 60 min as an index of inflammation. For all test procedures, % inhibition was calculated according to formula (1). Five mice/dose level of test substance were used with negative and positive control groups run concurrently. The positive control was indomethacin.
# Human 5-LO = biological target: T1, Human 5-LO (Homo sapiens, UniProt P09917); assay: Assay of recombinant human 5-lipoxygenase (oxygen consumption); assay type: biochemical
# T1 construct: purchased Oxford Biomedical Research Co., Oxford, Mich
# T1 sequence (P09917 1-674): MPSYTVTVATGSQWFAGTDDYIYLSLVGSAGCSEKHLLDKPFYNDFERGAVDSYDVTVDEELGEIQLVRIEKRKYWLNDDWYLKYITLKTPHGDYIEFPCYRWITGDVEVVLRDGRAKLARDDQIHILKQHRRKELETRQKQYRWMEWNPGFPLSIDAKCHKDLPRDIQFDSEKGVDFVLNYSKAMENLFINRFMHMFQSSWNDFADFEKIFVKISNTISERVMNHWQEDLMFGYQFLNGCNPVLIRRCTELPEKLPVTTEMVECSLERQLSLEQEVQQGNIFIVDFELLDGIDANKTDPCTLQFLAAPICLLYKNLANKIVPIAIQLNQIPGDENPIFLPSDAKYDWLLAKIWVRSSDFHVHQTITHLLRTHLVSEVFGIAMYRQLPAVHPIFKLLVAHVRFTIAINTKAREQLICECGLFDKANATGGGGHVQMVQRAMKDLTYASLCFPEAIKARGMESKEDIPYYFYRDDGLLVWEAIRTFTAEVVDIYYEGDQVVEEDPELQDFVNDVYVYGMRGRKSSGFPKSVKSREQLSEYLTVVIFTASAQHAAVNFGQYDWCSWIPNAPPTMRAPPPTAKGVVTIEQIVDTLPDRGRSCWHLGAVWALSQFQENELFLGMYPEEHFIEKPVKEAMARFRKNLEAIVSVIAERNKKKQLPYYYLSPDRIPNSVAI
# Protocol: The reaction mixture (1.80 ml) consisted of 0.25 mM CaCl2, 0.13 mM ATP, 7 μl of phosphatidylcholine (12 μg/2 ml ethanol), 25 μl of inhibitor dissolved in ethanol, and Tris-HCl buffer, 50 mM, pH 7.4, and preincubated for 3 min. The reaction was started by injecting 5 μl of arachidonic acid (3.8 mg/5 ml ethanol) yielding a final arachidonic acid concentration of 4.5 μM in the reaction mixture. The rate of disappearance of dissolved oxygen was monitored with an oxygen electrode at 37° C., as described in Example 2. The O2 concentration in an air-saturated aqueous solution at 37° C. was calculated to be 0.185 mM.
# Prostaglandin H Synthase = biological target: T2, Prostaglandin H Synthase (Ovis aries, UniProt P05979); assay: Prostaglandin H synthase (cyclooxygenase) assay (oxygen consumption); assay type: biochemical
# T2 construct: purchased Oxford Biomedical Research Co., Oxford, Mich
# T2 sequence (P05979 25-600): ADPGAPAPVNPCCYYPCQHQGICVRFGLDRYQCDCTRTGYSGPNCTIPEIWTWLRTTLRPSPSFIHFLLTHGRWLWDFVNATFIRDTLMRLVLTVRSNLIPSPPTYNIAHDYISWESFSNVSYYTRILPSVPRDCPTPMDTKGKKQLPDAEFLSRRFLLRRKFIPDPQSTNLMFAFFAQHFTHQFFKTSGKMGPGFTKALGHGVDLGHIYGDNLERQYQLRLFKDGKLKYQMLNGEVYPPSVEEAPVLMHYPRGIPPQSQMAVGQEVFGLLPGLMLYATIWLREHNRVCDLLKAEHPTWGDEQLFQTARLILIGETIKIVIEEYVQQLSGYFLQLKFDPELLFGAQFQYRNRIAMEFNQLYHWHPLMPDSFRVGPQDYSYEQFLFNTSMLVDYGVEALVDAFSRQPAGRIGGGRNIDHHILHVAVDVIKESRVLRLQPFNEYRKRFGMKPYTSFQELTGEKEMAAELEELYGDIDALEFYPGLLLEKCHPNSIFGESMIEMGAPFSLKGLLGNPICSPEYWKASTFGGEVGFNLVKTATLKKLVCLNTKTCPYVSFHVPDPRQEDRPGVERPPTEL
# Protocol: Prostaglandin H synthase was obtained from Oxford Biomedical Research Co., Oxford, Mich. The reaction mixture (1.80 ml) consisted of 0.5 mM phenol, 1 μM hematin, enzyme (3.75 μg in 5 μl), 25 μl of inhibitor dissolved in ethanol, and potassium phosphate buffer (0.1 M, pH 7.8), and was preincubated for 3 min. The reaction was started by injecting 15 μl of arachidonic acid dissolved in ethanol, yielding a final concentration of 100 μM arachidonic acid in the reaction vessel. The disappearance of dissolved oxygen was monitored as described in Example 2. The assay system was checked by measuring the inhibition in indomethacin, a known inhibitor of prostaglandin H synthase.
# Soybean 15-LO = biological target: T3, Soybean 15-LO (Glycine max, UniProt P08170); assay: Assay of soybean 15-lipoxygenase (oxygen consumption, Clark oxygen electrode); assay type: biochemical
# T3 construct: purchased Sigma Chemical Co. (St. Louis, Mo.) Type V
# T3 sequence (P08170 1-839): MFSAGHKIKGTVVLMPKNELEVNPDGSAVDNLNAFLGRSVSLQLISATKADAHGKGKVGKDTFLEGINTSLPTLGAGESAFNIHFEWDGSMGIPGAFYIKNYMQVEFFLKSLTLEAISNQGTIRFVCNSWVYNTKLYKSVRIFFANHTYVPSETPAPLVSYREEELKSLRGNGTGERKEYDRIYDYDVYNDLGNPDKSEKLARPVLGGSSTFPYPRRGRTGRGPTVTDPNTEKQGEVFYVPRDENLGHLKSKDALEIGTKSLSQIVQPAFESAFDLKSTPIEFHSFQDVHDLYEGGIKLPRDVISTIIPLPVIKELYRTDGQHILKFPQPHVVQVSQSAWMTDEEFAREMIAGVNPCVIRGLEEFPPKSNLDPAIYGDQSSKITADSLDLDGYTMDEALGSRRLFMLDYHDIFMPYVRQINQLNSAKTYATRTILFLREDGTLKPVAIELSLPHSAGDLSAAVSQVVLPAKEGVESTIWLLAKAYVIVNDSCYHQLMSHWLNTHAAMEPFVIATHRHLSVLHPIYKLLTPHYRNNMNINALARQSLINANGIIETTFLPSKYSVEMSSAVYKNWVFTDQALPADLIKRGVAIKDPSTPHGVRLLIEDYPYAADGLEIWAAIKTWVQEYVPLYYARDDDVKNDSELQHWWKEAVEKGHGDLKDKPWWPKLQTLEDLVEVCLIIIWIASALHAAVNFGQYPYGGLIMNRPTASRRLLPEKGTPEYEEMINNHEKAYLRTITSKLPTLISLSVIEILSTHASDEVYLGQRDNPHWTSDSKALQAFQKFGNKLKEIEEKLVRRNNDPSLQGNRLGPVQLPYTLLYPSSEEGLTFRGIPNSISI
# Protocol: Initial screening was carried out on three hopanoids isolated from Z. mobilis (FIGS. 1,b,c,d). These compounds were purified as described and screened for their ability to inhibit three enzymes known for their activity in the metabolism of arachidonic acid. These enzymes, soybean 15-lipoxygenase (15-LO), human 5-lipoxygenase (5-LO) and prostaglandin H synthase (Table I), are known to be inhibited by most non-steroidal anti-inflammatory drugs (Parthasarathy and Rankin. 1992. Prog. Lipid. Res. vol. 31, p. 127). Soybean 15-LO was inhibited by one of the hopanoids, tetrahydroxybacteriohopane (THBH), with an IC50 of about 10 μM. […] The two other natural hopanoid compounds, THBH-GA and THBH-Et, were also evaluated for their effect on soybean 15-LO.
# Soybean 15 LO (Type V) was obtained from Sigma Chemical Co. (St. Louis, Mo.). The reaction mixture (1.8 ml) consisted of 0.1 M borate buffer, pH 9.0, 5 μl (0.5 μg, 315 units) of soybean 15-LO dissolved in borate buffer, and 25 μl of inhibitor dissolved in ethanol, and was preincubated for 3 min. The reaction was started by injecting 100 μl of substrate mixture (prepared fresh daily and consisting of 1.0 mg arachidonic acid sonicated in 2.3 ml 0.1 M borate buffer, pH 9.0) yielding a final concentration of 50.9 μM arachidonic acid in the reaction vessel. The rate of disappearance of dissolved oxygen was monitored with a Clark Oxygen Electrode (Yellow Springs Instruments, Yellow Springs, Ohio) with the temperature controlled at 25° C., according to the method described by Breton et al. (1993. Prostaalandins, Leucotrienes, and Fatty Acids. vol. 49, p. 929, herein incorporated by reference). The O2 concentration in an air-saturated aqueous solution at 25° C., was calculated to be 0.24 mM. The assay system was checked by measuring the inhibition of phenidone, a known inhibitor of soybean 15-LO. Each potential inhibitor was tested at each of the listed concentrations at least three times and enzyme activities presented are the means ± standard deviations, reported as relative activities (calculated assuming that the activity in the minus-inhibitor control=100). The actual activities of the controls (in units of μM O2 consumed/min/mg protein) are also presented as a footnote to Table I.
# [2] = control = 100, read-out: Enzyme Activity (Relative ± S.D.)
# [3] = 50 μM, control = 100, read-out: Enzyme Activity (Relative ± S.D.)
# [4] = 25 μM, control = 100, read-out: Enzyme Activity (Relative ± S.D.)
# [5] = read-out: Enzyme Activity (Relative ± S.D.)
structure (smiles),measurement,setting,value
"C[C@H](CC[C@@H](O)[C@@H](O)[C@@H](O)CO)[C@H]1CC[C@]2(C)[C@H]3CC[C@@H]4[C@@]5(C)CCCC(C)(C)[C@@H]5CC[C@@]4(C)[C@]3(C)CC[C@@H]12 [THBH, tetrahydroxybacteriohopane]",% Inhibition of swelling,[1]; 10 mg/ear,41%
same,"Ear Thickness Measurement, Left Ear (No A.A.)",[1]; 10 mg/ear,22.0 ± 0.7 × 0.01 mm
same,"Ear Thickness Measurement, Right Ear (1 hr. A.A.)",[1]; 10 mg/ear,31.6 ± 1.5 × 0.01 mm
same,Swelling (R - L),[1]; 10 mg/ear,9.6 ± 1.1 × 0.01 mm
same,effect on arachidonic acid-caused swelling (in words),[1]; mouse ear,significantly affects swelling caused by the application of arachidonic acid
same,remaining activity at 25 µM,Human 5-LO; [2],98 ± 2%
same,remaining activity at 50 µM,Human 5-LO; [3],97 ± 1%
same,inhibition of human 5-LO (in words),Human 5-LO; 25 or 50 μM,not significantly inhibited
same,remaining activity at 25 µM,Prostaglandin H Synthase; [4],102 ± 3%
same,remaining activity at 50 µM,Prostaglandin H Synthase; [3],103 ± 2%
same,inhibition of prostaglandin H synthase (in words),Prostaglandin H Synthase; 25 or 50 μM,not significantly inhibited
same,IC50,Soybean 15-LO,~10 µM
same,selectivity for 15-LO over 5-LO and prostaglandin H synthase (in words),Soybean 15-LO,selectively inhibits 15-LO without inhibiting either 5-LO or prostaglandin H synthase
same,remaining activity at 6.75 µM,Soybean 15-LO; [5],68 ± 5%
same,remaining activity at 12.5 µM,Soybean 15-LO; [5],48 ± 9%
same,remaining activity at 25 µM,Soybean 15-LO; [5],15 ± 6%
same,remaining activity at 50 µM,Soybean 15-LO; [5],4 ± 3%
same,remaining activity at 100 µM,Soybean 15-LO; [5],11 ± 2%
"COc1ccc2c(c1)c(CC(=O)O)c(C)n2C(=O)c1ccc(Cl)cc1 [Indomethacin, indomethacin, reference compound]",% Inhibition of swelling,[1]; 3 mg/ear,56%
same,"Ear Thickness Measurement, Left Ear (No A.A.)",[1]; 3 mg/ear,22.2 ± 0.5 × 0.01 mm
same,"Ear Thickness Measurement, Right Ear (1 hr. A.A.)",[1]; 3 mg/ear,29.4 ± 1.5 × 0.01 mm
same,Swelling (R - L),[1]; 3 mg/ear,7.2 ± 1.5 × 0.01 mm
same,remaining activity at 2.4 µM,"Prostaglandin H Synthase; 2.4 μM, control = 100, read-out: Enzyme Activity (Relative ± S.D.)",7 ± 2%
CC(=O)OCC(OC(C)=O)C(OC(C)=O)C(CCC(C)C1CCC2(C)C1CCC1(C)C2CCC2C3(C)CCCC(C)(C)C3CCC21C)OC(C)=O (stereo not shown) [THBH-Acet],inhibition or stimulation of soybean 15-LO (in words),Soybean 15-LO,destroyed its ability to inhibit this 15-LO
same,remaining activity at 25 µM,Soybean 15-LO; [5],89 ± 11%
same,remaining activity at 50 µM,Soybean 15-LO; [5],114 ± 17%
"O=C1CCN(c2ccccc2)N1 [Phenidone, phenidone, reference compound]",remaining activity at 25 µM,Human 5-LO; [2],55 ± 2%
same,remaining activity at 25 µM,Soybean 15-LO; [4],34 ± 4%
"CC(CCC(O)C(O)C(O)COC1OC(CO)C(O)C(O)C1N)C1CCC2(C)C1CCC1(C)C2CCC2C3(C)CCCC(C)(C)C3CCC21C (stereo not shown) [THBH-GA, tetrahydroxybacteriohopane glucosamine]",inhibition or stimulation of soybean 15-LO (in words),Soybean 15-LO,stimulated enzyme activity
same,remaining activity at 25 µM,Soybean 15-LO; [5],172 ± 24%
same,remaining activity at 50 µM,Soybean 15-LO; [5],188 ± 14%
"CC(CCC(O)C(O)C(O)COC1C(N)C(O)C(O)C1(O)CO)C1CCC2(C)C1CCC1(C)C2CCC2C3(C)CCCC(C)(C)C3CCC21C (stereo not shown) [THBH-Et, tetrahydroxybacteriohopane ether]",inhibition or stimulation of soybean 15-LO (in words),Soybean 15-LO,stimulated enzyme activity
same,remaining activity at 25 µM,Soybean 15-LO; [5],151 ± 10%
same,remaining activity at 50 µM,Soybean 15-LO; [5],250 ± 38%

# From patent publication US6177415A, “Bacteriohopanetetrol and related compounds useful for modulation of lipoxygenase activity and anti-inflammatory applications” (The United States of America as represented by the …, priority 1997, dated 2001)
